This is an account of results in USRE37979E1, “Pyrimidine derivatives and anti-viral agent containing the same as active ingredient thereof” (priority 1989, dated 2003).

The subject of one data set is MT-4 cells. The data set is described as follows: Cytotoxicity to MT-4 cells not infected with HIV. To be noted: 5 days incubation, concentration at which 50% of the MT-4 cells were destroyed. Format: cell-based. On the procedure:
(§1) In RPMI 1640 DM culture medium containing 20 mM of Hepes buffer solution, 10% fetal bovine serum and 20 μg/ml of gentamycin, 3×10^4 MT-4 cells (human T cell clone which is destroyed by the infection of HIV) were infected with HIV in an amount of 100 times as large as expected to cause 50% infection of the cells. Immediately thereafter, a predetermined amount of sample was added to the culture medium using 50 mg/ml sample solutions in dimethyl sulfoxide and the cells were cultured at 37° C.
(§2) After 5 days of incubation, the number of existing cells was counted to determine the concentration of the compound for preventing the death of 50% of the MT-4 cells. Separately, MT-4 cells were cultured in the same way as above except that they were not infected with HIV to determine the concentration of the compound at which 50% of the MT-4 cells were destroyed.

The subject of a further data set is HIV. The data set is described as follows: Inhibitory activity for HIV infection (protection of HIV-infected MT-4 cells from death). Format: cell-based. Conditions: 5 days incubation at 37° C., concentration preventing the death of 50% of the MT-4 cells. On the procedure: Inhibitory activity for HIV infection
as §1, §2

Setting [1] is: Human immunodeficiency virus 1, MT4, 120 h.

As for “1-(4-hydroxybutyl) -6-phenylthiothymine [Compound 31]”, in the data set on MT-4 cells, the “50% cytotoxic concentration to MT-4 cells” value came out at 249 µM. The IC50 with HIV worked out at 13 µM.
Take “1-(methylthiomethyl)-6-phenylthiothymine [Compound 32]”: the midpoint of inhibition in the data set with HIV, the IC50, lay at 1.2 µM.
For “1-[(2-acetoxyethoxy)methyl]-6-phenylthiothymine [Compound 2]”, in the data set on HIV, it took 6.7 µM to reach half-maximal inhibition (IC50).
For the compound “1-[(2-phenylcarbamoyloxyethoxy) methyl]-6-m-tolylthiothymine [Compound 16]”, in the data set with HIV, the IC50 was 21 µM.
The same measure, in the same setting: as for “1-butyl-5-ethyl-6-phenylthiouracil [Compound 252]”, the figure is 0.016 µM; as for “1-ethoxymethyl-5-ethyl-6-phenylthiouracil [Compound 247]”, 0.016 µM.
Take `CC(=O)OCCOCn1c(Sc2ccccc2)c(C)c(=O)[nH]c1=S` [Compound 1, 1-[(2-acetoxyethoxy)methyl]-6-phenylthio-2-thiothymine]: the half-maximal inhibitory concentration (IC50) with HIV (setting [1]) was 2.8 µM.
For the compound `COCn1c(Sc2ccccc2)c(C)c(=O)[nH]c1=O` [Compound 22, 1-(methoxymethyl)-6-phenylthiothymine], the IC50 in the data set on HIV came out at 2.1 µM.
With `CCOCn1c(Sc2ccccc2)c(CC)c(=O)[nH]c1=S` [Compound 358, 1-ethoxymethyl-5-ethyl-6-phenylthio-2-thiouracil], 0.026 µM corresponded to half-maximal inhibition in the data set with HIV (setting [1]) (IC50). This counts as double-digit nanomolar.
The same measure, in the same setting: as for `CCOCn1c(Cc2ccccc2)c(CC)c(=O)[nH]c1=O` [Compound 472, 6-benzyl-1-ethoxymethyl-5-ethyluracil], the figure is 0.041 µM.
